US5432160A, “Nutrient composition” (Kyowa Hakko Kohyo Co., Ltd., priority 1993, dated 1995)
Peptide text beside a SMILES is read from it.

What was measured:
Format in all cases: physicochemical
[1] = Heat stability: residual rate after heat sterilization in an autoclave; conditions: aqueous 10 mM solution, pH 6.5, autoclave 120° C.
Experimental: Each of aqueous 10 mM solutions of β-alanyl-L-glutamine, L-alanyl-L-glutamine (control) and L-glutamine (control) adjusted at pH 6.5 with sodium hydroxide was heated in an autoclave at 120° C. for a period of 20 minutes or 120 minutes. The residual rate of each of the compounds after heating was determined.

[2] = Solubility: maximum amount dissolved in 1 liter of water; conditions: 25° C.
Experimental: Each of β-alanyl-L-glutamine, L-alanyl-L-glutamine (control) and L-glutamine (control) was dissolved into 1 liter of water (25° C.). Each of their maximum amounts dissolved in the water was determined.

[3] = Heat stability: residual rate after heat sterilization in an autoclave; conditions: aqueous 10 mM solution, pH 6.5, autoclave 120° C., 20 minutes

Compound: C[C@H](N)C(=O)N[C@@H](CCC(N)=O)C(=O)O [L-Alanyl-L-glutamine, L-alanyl-L-glutamine] (H-Ala-Gln-OH)
- Residual Rate after Heat Sterilization 20 min. [1]: 98%
- Residual Rate after Heat Sterilization 20 min. ([1]; listed as L-alanyl-L-glutamine): partly decomposed
- Residual Rate after Heat Sterilization 120 min. [1]: 91%
- Amount Dissolved in 1 liter of Water [2]: 599 g

Compound: NCCC(=O)N[C@@H](CCC(N)=O)C(=O)O [β-Alanyl-L-glutamine, β-alanyl-L-glutamine]
- Residual Rate after Heat Sterilization 20 min. [1]: 100%
- Residual Rate after Heat Sterilization 20 min. ([1]; listed as β-alanyl-L-glutamine): remained entirely without being decomposed
- Residual Rate after Heat Sterilization 120 min. [1]: 99%
- Amount Dissolved in 1 liter of Water [2]: 952 g
- Amount Dissolved in 1 liter of Water ([2]; listed as β-alanyl-L-glutamine): highest solubility

Compound: NC(=O)CC[C@H](N)C(=O)O [L-Glutamine, L-glutamine]
- Residual Rate after Heat Sterilization 20 min. [1]: 9%
- Residual Rate after Heat Sterilization 120 min. [1]: 0%
- Residual Rate after Heat Sterilization 120 min. ([1]; listed as L-glutamine): decomposed completely
- Amount Dissolved in 1 liter of Water [2]: 43 g
- Share decomposed after heating [3]: about 90%
